The test system of the test is muscle tissue, subcutaneous connective tissue, and dermis. The test is described as follows: Effect on tissue at sites of injection in normal rats, histopathology at 24 hours. Type of test: in vivo. To be noted: for effect on tissue at sites of injection (histopathology): injected in skin, subcutaneously and in extremity skeletal muscle, in saline, 100 to 400 mL at 0.1-1 mg/mL, sacrificed at 24 hours; for muscle changes at injection sites compared with controls: extremity skeletal muscle injection; for muscle changes at injection sites compared with controls / spread of necrosis / cell death beyond the site of injection: 24 hours; for spread of necrosis / cell death beyond the site of injection: local injection. The protocol:
Eight normal rats were injected in the skin and subcutaneously, each in four different foci, and in extremity skeletal muscle, each in two different foci, with NTP peptide #43 in saline in quantities of […] at concentrations of 0.1-1 mg/mL delivered from plastic syringes through stainless steel 26 gauge needles.
The 48 individual foci of infiltration were excised, fixed in 10% formalin, embedded in paraffin, and stained and examined by standard histopathological methods.
Similar groups of control rats were injected with (1) bovine serum albumin 0.1% in saline, (2) normal human serum, (3) physiological saline, (4) noninfectious bacterial proteins, and (5) control peptides and purified and then examined and sacrificed as above, with the excised foci of injection treated as above.
Eight normal rats were injected in the skin and subcutaneously, each in four different foci, and in extremity skeletal muscle, each in two different foci, with NTP peptide #17 in saline in quantities of […] at concentrations of 0.1-1 mg/mL delivered from plastic syringes through stainless steel 26 gauge needles.
The controls were the same as Example 1.
Eight normal rats were injected in the skin and subcutaneously, each in four different foci, and in extremity skeletal muscle, each in two different foci, with NTP peptide #20 in saline in quantities of […] at concentrations of 0.1-1 mg/mL delivered from plastic syringes through stainless steel 26 gauge needles.
Eight normal rats were injected in the skin and subcutaneously, each in four different foci, and in extremity skeletal muscle, each in two different foci, with NTP peptide #19 in saline in quantities of […] at concentrations of 0.1-1 mg/mL delivered from plastic syringes through stainless steel 26 gauge needles.
Eight normal rats were injected in the skin and subcutaneously, each in four different foci, and in extremity skeletal muscle, each in two different foci, with NTP peptide #16 in saline in quantities of […] at concentrations of 0.1-1 mg/mL delivered from plastic syringes through stainless steel 26 gauge needles.
Eight normal rats were injected in the skin and subcutaneously, each in four different foci, and in extremity skeletal muscle, each in two different foci, with NTP peptide #15 in saline in quantities of […] at concentrations of 0.1-1 mg/mL delivered from plastic syringes through stainless steel 26 gauge needles.
Eight normal rats were injected in the skin and subcutaneously, each in four different foci, and in extremity skeletal muscle, each in two different foci, with NTP peptide #14 in saline in quantities of […] at concentrations of 0.1-1 mg/mL delivered from plastic syringes through stainless steel 26 gauge needles.

Take “KCWDYRRAAVPGLFILFFLRHRCP (listed as Homo sapiens) [NTP peptide #16]”: the “effect on tissue at sites of injection (histopathology)” value (“effect on tissue … (histopathology)” below) was “cell death and necrosis of tissue at the injection sites”. For “FILFFLRHRCPTLTQDEVQWCDHSS (listed as Homo sapiens) [NTP peptide #20]”, the “muscle changes at injection sites compared with controls” value is on record as “entire fields of muscle fiber layers were necrotic”; the “effect on tissue … (histopathology)” value was “cell death and necrosis of tissue at the injection sites”; the “spread of necrosis / cell death beyond the site of injection” value is listed as “did not appear to spread far beyond the site of injection”. As for “KCWDYRRAAVPGL (listed as Homo sapiens) [NTP peptide #14]”, the “effect on tissue … (histopathology)” value was “cell death and necrosis of tissue at the injection sites”. Same read-out and setting: under “KCWDYRRAAVPGLFILFFL (listed as Homo sapiens) [NTP peptide #15]” stands “cell death and necrosis of tissue at the injection sites”; under “FILFFLRHRCPTL (listed as Homo sapiens) [NTP peptide #19]”, “cell death and necrosis of tissue at the injection sites”.

Take “KCWDYRRAAVPGLFILFFLRHRCPTLTQDEVQWCDHSS (listed as Homo sapiens) [NTP peptide #17]”: the “muscle changes at injection sites compared with controls” value is listed as “entire fields of muscle fiber layers were necrotic”, the “effect on tissue … (histopathology)” value was “abundant acute necrosis of tissue at the injection sites” and the “spread of necrosis / cell death beyond the site of injection” value is “did not appear to spread far beyond the site of injection”.

Source of the values: patent publication US6924266B2, “NTP-peptides and method for removal of tumors” (Nymox Corporation, priority 2001, dated 2005).
